Several values for one entry are separate records, joined by “and”; a condition that tells them apart may be missing. Equal values may be shown once.
What was measured:
Format in all cases: cell-based
[1] = test system: Staphylococcus aureus ATCC 25923; test: MIC determination and synergy testing (Kull synergy index), microplate; details: for QB, MIC of CG alone: plate 125D
Procedure: (§1) The test cultures are listed in Table 7 along with the incubation temperatures used for growth and minimum inhibitory concentration (MIC) testing. […] C. albicans was cultured in Sabouraud dextrose broth (SDB) for approximately 44-52 hours for preparation of inoculum. A. niger was cultured on Sabouraud dextrose agar (SDA) for 3-4 days until there was confluent growth and visible spore formation. Spores were harvested from the SDA plates by flooding the surface of the plate with 5-10 mL of phosphate-buffered saline (PBS) and gently spreading the liquid across the surface of the plate with a sterile T-shaped plastic spreader (Copan Diagnostics) until there was a well-mixed suspension of spores. The resulting spore suspension was collected using a serological pipette and stored at 2-8° C. until use.
(§2) Inoculum concentration was determined by dilution plating of the cultures or spore suspension. A serial dilution in PBS was made to 10^−8 for the bacterial cultures or 10^−5 for the fungal cultures. Fifty or 100 μL of the final dilution was spread on two Trypticase-soy agar (TSA) plates for bacteria or two SDA plates for fungi. After 24 to 48 hours plates were counted and the concentrations used in each experiment were calculated.
(§3) The antimicrobial agents tested for synergy along with the respective diluents and working stock solution concentrations are shown below. For determination of MIC ranges, individual antimicrobial agent stock solutions were added to sterile medium to yield the highest level test concentrations, and then serially diluted in the medium to prepare the range of test concentrations. For synergy testing individual test concentrations were prepared in sterile medium, and then blended to form the desired combinations.
(§4) MICs were determined using a high-throughput microplate method. Individual antimicrobial agents were added to TSB (pH 7.3) for bacterial testing or SDB (pH 5.6) for fungal testing at the highest concentration to be tested. A serial dilution series was prepared at a dilution ratio of 1:1.3333 such that a one log range was covered in nine dilutions. Two-hundred microliters of the diluted antimicrobial agents were dispensed into four wells each of a sterile, 96-well, flat-bottom microplate (Nalge Nunc International). Four additional wells of the highest concentration were dispensed to serve as uninoculated high-level controls. Eight additional wells containing only broth medium were also prepared, four to serve as negative controls and four as positive controls. Three wells of each antimicrobial agent dilution were inoculated with one of the test strains in Table 7. The final well of each antimicrobial agent dilution was left uninoculated to serve as a control (and means of compensating) for any absorbance/turbidity due to the test compounds.
(§5) Microplates were inoculated using the cultures or spore suspensions prepared as described above. The S. aureus cultures were used undiluted, while the E. coli and P. aeruginosa cultures were used either undiluted or after a 1:2 dilution in sterile TSB. The C. albicans cultures were used either undiluted or following a 2-fold concentration by centrifugation. One of two means of inoculation was used to deliver a final concentration of approximately 10^5 colony-forming units (CFU)/mL of C. albicans, 10^5 spores/mL of A. niger, or 10^6 CFU/mL of bacteria. The primary method used a stainless steel pin replicator (Nalge Nunc International) mounted on a hand-operated bench-top press (Schmidt Technology Corporation) fitted with a custom-built microplate holder to dispense one microliter of each inoculum from a “master” plate containing 50-100 μL of culture into the wells of the test plate. The pin replicator was sterilized before and between inoculations by immersing in ethanol and flaming. The alternative method of inoculation was by directly pipetting 20 μL of a 1:20 dilution of each culture or spore suspension into the appropriate wells of the test plates.

[2] = test system: Pseudomonas aeruginosa ATCC 27853; test: as above; details: for QB, MIC of CG alone: P. aeruginosa, plate 169E
Procedure: as §1, §2, §3, §4, §5

[3] = test system: Candida albicans ATCC 10231; test: as above; details: for QB, MIC of MP alone: plate 128B; for QB, MIC of PE alone: plates 116B, 240B, 252B
Procedure: as §1, §2, §3, §4, §5

[4] = test system: Aspergillus niger ATCC 16404; test: as above; details: for QB, MIC of CG alone / QB, MIC of PE alone: A. niger; for QB, MIC of PE alone: plates 122C, 242C
Procedure: as §1, §2
The A. niger spore suspensions were concentrated to a level of 1-2×10^8 spores/mL by centrifugation and resuspension in a portion of the resulting supernatant.
as §3, §4
Microplates were inoculated using the cultures or spore suspensions prepared as described above. The S. aureus cultures were used undiluted, while the E. coli and P. aeruginosa cultures were used either undiluted or after a 1:2 dilution in sterile TSB. The C. albicans cultures were used either undiluted or following a 2-fold concentration by centrifugation. One of two means of inoculation was used to deliver a final concentration of approximately 10^5 colony-forming units (CFU)/mL of C. albicans, 10^5 spores/mL of A. niger, or 10^6 CFU/mL of bacteria. The primary method used a stainless steel pin replicator (Nalge Nunc International) mounted on a hand-operated bench-top press (Schmidt Technology Corporation) fitted with a custom-built microplate holder to dispense one microliter of each inoculum from a “master” plate containing 50-100 μL of culture into the wells of the test plate. The pin replicator was sterilized before and between inoculations by immersing in ethanol and flaming. […]

[5] = test system: Corynebacterium xerosis ATCC #373; test: Synergy testing in brain heart infusion media, 96-well plates; details: for % EHG / SI: CHDM with EHG; for % EHG: relative to EHG alone; for QB/b (EHG): inhibitory concentration of EHG alone or in combination with CHDM, plate EX194-195-EHG-Syn1; for SI: synergy index
Procedure: as §4
The individual antimicrobial agents listed in Table 8 were tested in combination with CHDM. The MIC values determined in the individual antimicrobial agent testing described above were used to establish a target MIC. In each experiment, MIC values for the individual antimicrobial agents and CHDM were determined in order to eliminate any variability due to comparison of data from different dates. Testing was done over a range of four concentrations separated by a factor of 1.3333 as described above. The four concentrations were the target MIC plus one dilution level higher and two dilution levels lower than the target. Combinations of antimicrobial agents and CHDM were made at 50% of the target MIC values and the higher and lower individual levels. Additionally, 50% level series were also tested with the antimicrobial agent or CHDM at one dilution level lower than the target level. The method of Kull et. al. (F. C. Kull et al., Applied Microbiology, 9, p 538-541 (1961)) was used to determine whether there was synergistic activity between CHDM and each antimicrobial agent for inhibition of each of the five microbes. MICs for the individually-tested CHDM and antimicrobial agent, as well as the concentration of CHDM and antimicrobial agent in the combination MIC were used to calculate a synergy index (SI) according to the equation: […]
where Qa and Qb are the minimum inhibitory concentrations for CHDM and a antimicrobial agent, respectively, when tested independently, and QA and QB are the concentrations of CHDM and a antimicrobial agent, respectively, in combination at an inhibitory concentration. Accordingly, synergy is defined as a SI less than one.
Experiments were also conducted using Corynebacterium xerosis, which is a bacterium known to cause body odor. […] The Corynebacterium xerosis bacterium used in this example was ATCC #373. The seed culture was grown in brain heart infusion medium. Assays were performed in brain heart infusion media in 96-well plates as described in Example 2. The brain heart infusion medium was at a pH of about 7.4. All growth was conducted at 37° C.

[6] = test system: Escherichia coli ATCC 25922; test: MIC determination and synergy testing (Kull synergy index), microplate; details: E. coli; for QB, MIC of MP alone: plate 108A; for QB, MIC of PE alone: plates 105A, 213A, 223A
Procedure: as §1, §2, §3, §4, §5

[7] = C. albicans, day 2 of incubation
[8] = C. albicans, day 3 of incubation

CCCCCCC(O)CO (centres unmarked) [Caprylyl glycol (CG)]
QB, MIC of CG alone ([1]; S. aureus, day 1 of incubation): 0.24 weight percent | QB, MIC of CG alone ([1]; S. aureus, day 2 of incubation): 0.32 weight percent | QB, MIC of CG alone ([2]; day 1 of incubation): 0.23 weight percent | QB, MIC of CG alone ([2]; day 2 of incubation): 0.30 weight percent | QB, MIC of CG alone ([2]; day 3 of incubation): 0.30 weight percent | QB, MIC of CG alone ([3]; C. albicans, day 3 of incubation, plates 117B, 254B): 0.11 weight percent and 0.22 weight percent | QB, MIC of CG alone ([4]; day 2 of incubation, plates 123C, 217C): 0.17 weight percent and 0.10 weight percent | QB, MIC of CG alone ([4]; day 3 of incubation, plate 123C): 0.13 weight percent

CC1(C)C(=O)N(CO)C(=O)N1CO [DMDMH, DMDM Hydantoin, reference compound]
QB/b ([2]; DMDM hydantoin alone (QB) or in combination with CHDM (b), plate 150E, day 1): 0.049 | QB/b ([3]; DMDM hydantoin alone (QB) or in combination with CHDM (b), plate 241B, day 2): 0.22 | QB/b ([3]; DMDM hydantoin alone (QB) or in combination with CHDM (b), plate 241B, day 3): 0.22 | QB/b ([3]; DMDM hydantoin alone (QB) or in combination with CHDM (b), plate 244B, day 2): 0.36 | QB/b ([3]; DMDM hydantoin alone (QB) or in combination with CHDM (b), plate 244B, day 3): 0.36 | QB/b ([3]; DMDM hydantoin alone (QB) or in combination with CHDM (b), plate 263B, day 2): 0.45 | QB/b ([3]; DMDM hydantoin alone (QB) or in combination with CHDM (b), plate 263B, day 3): 0.80 | QB/b ([3]; DMDM hydantoin alone (QB) or in combination with CHDM (b), plate 264B, day 2): 0.34 | QB/b ([3]; DMDM hydantoin alone (QB) or in combination with CHDM (b), plate 264B, day 3): 0.60 | QB/b ([4]; DMDM hydantoin alone (QB) or in combination with CHDM (b), plate 196C, day 3): 0.14

CCCCC(CC)COCC(O)CO (centres unmarked) [EHG, ethylhexyl glycerin, reference compound]
% EHG ([5]; Day 2): 100.0% | QB/b (EHG) ([5]; Day 2): 0.107 | SI ([5]; Day 2): 1.00 | % EHG ([5]; Day 3): 100.0% | QB/b (EHG) ([5]; Day 3): 0.080 | SI ([5]; Day 3): 1.00

Cn1sccc1=O [MIT, Methylisothiazolinone, reference compound]
QB/b ([1]; MIT: MIC alone (QB) or conc. in combination with CHDM (b), plate 137D, day 2): 0.002 | Synergism of antimicrobial agent in combination with 1,4-CHDM for P. aeruginosa (in words; in the 12th table the cell names the organism and table number) ([2]; Kull synergy index, synergistic when at least two results SI<1): P. aeruginosa (26) | QB/b ([2]; MIT: MIC alone (QB) or conc. in combination with CHDM (b), plate 147E, day 1): 0.00053 | QB/b ([2]; MIT: MIC alone (QB) or conc. in combination with CHDM (b), plate 147E, day 2): 0.00093 | QB/b ([2]; MIT: MIC alone (QB) or conc. in combination with CHDM (b), plate 210E, day 1): 0.0006 | QB/b ([2]; MIT: MIC alone (QB) or conc. in combination with CHDM (b), plate 210E, day 2): 0.001 | QB/b ([2]; MIT: MIC alone (QB) or conc. in combination with CHDM (b), plate 249E, day 1): 0.00048 | QB/b ([2]; MIT: MIC alone (QB) or conc. in combination with CHDM (b), plate 249E, day 2): 0.0009 | QB/b ([3]; MIT: MIC alone (QB) or conc. in combination with CHDM (b), plate 162B, day 3): 0.012 | QB/b ([3]; MIT: MIC alone (QB) or conc. in combination with CHDM (b), plate 200B, day 2): 0.021 | QB/b ([3]; MIT: MIC alone (QB) or conc. in combination with CHDM (b), plate 200B, day 3): 0.021 | QB/b ([4]; MIT: MIC alone (QB) or conc. in combination with CHDM (b), plate 193C, day 2): 0.04 | QB/b ([4]; MIT: MIC alone (QB) or conc. in combination with CHDM (b), plate 193C, day 3): 0.03 | QB/b ([4]; MIT: MIC alone (QB) or conc. in combination with CHDM (b), plate 214C, day 2): 0.04 | QB/b ([4]; MIT: MIC alone (QB) or conc. in combination with CHDM (b), plate 214C, day 3): 0.04

COC(=O)c1ccc(O)cc1 [Methylparaben (MP)]
QB, MIC of MP alone ([6]; day 1 of incubation): 0.112 weight percent | QB, MIC of MP alone ([6]; day 2 of incubation): 0.112 weight percent | QB, MIC of MP alone [3, 7]: 0.060 weight percent | QB, MIC of MP alone [3, 8]: 0.080 weight percent

OCCOc1ccccc1 [Phenoxyethanol (PE)]
QB, MIC of PE alone ([1]; S. aureus, day 2 of incubation, plates 124D, 219D): 0.73 weight percent and 0.55 weight percent | QB, MIC of PE alone ([6]; day 1 of incubation): 0.36 weight percent and 0.33 weight percent and 0.48 weight percent | QB, MIC of PE alone ([6]; day 2 of incubation): 0.48 weight percent and 0.36 weight percent and 0.43 weight percent | QB, MIC of PE alone [3, 7]: 0.22 weight percent and 0.27 weight percent and 0.23 weight percent | QB, MIC of PE alone [3, 8]: 0.22 weight percent and 0.27 weight percent and 0.30 weight percent | QB, MIC of PE alone ([4]; day 2 of incubation): 0.24 weight percent and 0.30 weight percent | QB, MIC of PE alone ([4]; day 3 of incubation): 0.24 weight percent and 0.40 weight percent
